{
  "source": "patent US20220168243A1",
  "about": "(priority 2020, published 2022)",
  "data": [
    {"tested_on": "SARS-CoV-2", "assay": "not given", "type": "cell-based, SARS-CoV-2 (USA-WA1/2020)", "conditions": "not given", "units": {"% Inhibition at HIGHEST Non-toxic Concentration": "%"}, "values": [
      {"molecule": "CNCCCN1c2ccccc2CCc2ccccc21", "note": "[Desipramine, reference compound]", "% Inhibition at HIGHEST Non-toxic Concentration": 60},
      {"molecule": "NC(=O)C(c1ccccc1)(c1ccccc1)[C@@H]1CCN(CCc2ccc3c(c2)CCO3)C1", "note": "[Darifenacin]", "% Inhibition at HIGHEST Non-toxic Concentration": 45},
      {"molecule": "OCCOc1ccc(/C(=C(/CCCl)c2ccccc2)c2ccccc2)cc1", "note": "[Ospemifene]", "% Inhibition at HIGHEST Non-toxic Concentration": 45},
      {"molecule": "CCN(CCCc1ccccc1)CCCc1ccccc1", "note": "[Alverine]", "% Inhibition at HIGHEST Non-toxic Concentration": 30},
      {"molecule": "Cc1cn(-c2cc(NC(=O)c3ccc(C)c(Nc4nccc(-c5cccnc5)n4)c3)cc(C(F)(F)F)c2)cn1", "note": "[Nilotinib]", "% Inhibition at HIGHEST Non-toxic Concentration": 60},
      {"molecule": "Fc1ccc(C(c2ccc(F)cc2)N2CCN(C/C=C/c3ccccc3)CC2)cc1", "note": "[Flunarizine]", "% Inhibition at HIGHEST Non-toxic Concentration": 80},
      {"molecule": "CC(COc1ccccc1)N(CCCl)Cc1ccccc1", "note": "(stereo not shown) [Phenoxybenzamine]", "% Inhibition at HIGHEST Non-toxic Concentration": 95},
      {"molecule": "CN(C)CCCN1c2ccccc2Sc2ccccc21", "note": "[Promazine, reference compound]", "% Inhibition at HIGHEST Non-toxic Concentration": 70},
      {"molecule": "CC(C)COCC(CN(Cc1ccccc1)c1ccccc1)N1CCCC1", "note": "(stereo not shown) [Bepridil, reference compound]", "% Inhibition at HIGHEST Non-toxic Concentration": 60},
      {"molecule": "CCCCC1C(=O)N(c2ccccc2)N(c2ccccc2)C1=O", "note": "[Phenylbutazone]", "% Inhibition at HIGHEST Non-toxic Concentration": 90},
      {"molecule": "Cc1ccc(NC(=O)c2ccc(CN3CCN(C)CC3)cc2)cc1Nc1nc(-c2cccnc2)cs1", "note": "[Masitinib]", "% Inhibition at HIGHEST Non-toxic Concentration": 90}
    ]},
    {"tested_on": "coronaviruses (MERS; SARS-1; SARS-2)", "assay": "not given", "conditions": "cited from earlier work", "values": [
      {"molecule": "CNCCCN1c2ccccc2CCc2ccccc21", "note": "[Desipramine, reference compound]", "CoV Inhibition": "MERS; SARS-1 and MERS"},
      {"molecule": "CC(C)NCC(O)COc1cccc2ccccc12", "note": "(stereo not shown) [propranolol, reference compound]", "CoV Inhibition": "MERS; SARS-1"},
      {"molecule": "CC(C)N1CCN(c2ccc(OCC3COC(Cn4cncn4)(c4ccc(Cl)cc4Cl)O3)cc2)CC1", "note": "(stereo not shown) [terconazole, reference compound]", "CoV Inhibition": "MERS; SARS-1"},
      {"molecule": "CCN(CC)CCCC(C)Nc1ccnc2cc(Cl)ccc12", "note": "(stereo not shown) [chloroquine]", "CoV Inhibition": "MERS"},
      {"molecule": "C=CCc1ccccc1OCC(O)CNC(C)C", "note": "(stereo not shown) [alprenolol]", "CoV Inhibition": "MERS"},
      {"molecule": "CN(C)CCCN1c2ccccc2CCc2ccc(Cl)cc21", "note": "[clomipramine]", "CoV Inhibition": "MERS"},
      {"molecule": "CN(C)CCCN1c2ccccc2Sc2ccc(Cl)cc21", "note": "[chlorpromazine]", "CoV Inhibition": "SARS-2;"},
      {"molecule": "COc1cc2nc(N3CCN(C(=O)C4COc5ccccc5O4)CC3)nc(N)c2cc1OC", "note": "(stereo not shown) [doxazosin, reference compound]", "CoV Inhibition": "MERS; SARS-1"},
      {"molecule": "CN(C)CCCN1c2ccccc2Sc2ccccc21", "note": "[Promazine, reference compound]", "CoV Inhibition": "MERS; SARS-1 and MERS"},
      {"molecule": "CCSc1ccc2c(c1)N(CCCN1CCN(C)CC1)c1ccccc1S2", "note": "[thiethylperazine]", "CoV Inhibition": "SARS-2; and MERS"},
      {"molecule": "OCCN1CCN(CCCN2c3ccccc3Sc3ccc(C(F)(F)F)cc32)CC1", "note": "[fluphenazine]", "CoV Inhibition": "SARS-2; and MERS"},
      {"molecule": "CCN(CCO)CCCC(C)Nc1ccnc2cc(Cl)ccc12", "note": "(stereo not shown) [hydroxychloroquine]", "CoV Inhibition": "SARS-2; and MERS"},
      {"molecule": "COc1c(C)c2c(c(O)c1C/C=C(\\C)CCC(=O)OCCN1CCOCC1)C(=O)OC2", "note": "[mycophenolate_mofetil, reference compound]", "CoV Inhibition": "MERS; SARS-1"},
      {"molecule": "CC(CN1c2ccccc2Sc2ccccc21)N(C)C", "note": "(stereo not shown) [promethazine]", "CoV Inhibition": "MERS"},
      {"molecule": "CCN(CC)Cc1cc(Nc2ccnc3cc(Cl)ccc23)ccc1O", "note": "[amodiaquine]", "CoV Inhibition": "SARS-2; and MERS"}
    ]},
    {"tested_on": "Vero E6 cells", "assay": "Toxicity: CellTiter-Blue Cell Viability Assay", "conditions": "not given", "values": [
      {"molecule": "CNCCCN1c2ccccc2CCc2ccccc21", "note": "[Desipramine, reference compound]", "TOXICITY Y/N": "Very weak"},
      {"molecule": "CN(C)CCCN1c2ccccc2Sc2ccccc21", "note": "[Promazine, reference compound]", "TOXICITY Y/N": "Very weak"}
    ]}
  ]
}
